pIC50: −log10 of the molar value.
Experiments:
BCL-XL = molecular target: T1, BCL-XL (Homo sapiens, UniProt Q07817); assay: HTRF BCL-XL/BAK assay (Cisbio); type: binding; conditions: recombinant human Tag1-BCL-XL 2 nM, Tag2-BAK 5 nM
T1 construct: purchased Cisbio 63ADK000CB04PEG
Method: (§1) Then the pre-mixed anti-Tag1-Eu^3+ and anti-tag2-XL665 were added to the plate and further incubated at room temperature for another 2 hours. The signals ([…]) were read on Envision 2104 instrument. The IC50 for each compound was derived from fitting the signal of 665/615 nM to the increasing compound concentration.
(§2) Using the above assays, the following compounds were tested.

DOHH2 cells = assay: CellTiter-Glo cell proliferation assay, DOHH2 cells; type: cell-based; conditions: Homo sapiens, DOHH-2, 72 hours
Method: The CellTiter-Glo® Luminescent Cell Viability Assay (Promega, G7573) was used to study the cellular potency of disclosed compounds herein. The cells were harvested during the logarithmic growth period and counted with hemocytometer. The DOHH2 cells were seeded at 1.6*10^4 in 90 ul DMEM medium supplemented with 10% fetal bovine serum (FBS) (as RS4;11 cells were seeded at 4000 in 90 ul RPMI-1640 medium with 10% FBS) per well in 96-well plates and treated with 10 ul of a serial dilution of compounds disclosed herein (maximum concentration and dilution ratio determined by the results of pre-experiment may vary) for 72 hours in a 5% CO2 incubator at 37° C. Cell viability was assessed according to the manufacturer's recommendations. After the plates return to the room temperature, 100 ul of CellTiter-Glo® reagent was added to 100 ul of cell culture. The mixture was agitated on an orbital shaker for 2 minutes or placed it at room temperature for 10 minutes to allow cell lysis and stabilization of luminescent signals. Luminescent signals were recorded using Envision 2104 instrument. And GI50 values were then calculated.

BCL-2 = molecular target: T2, BCL-2 (Homo sapiens, UniProt P10415); assay: HTRF BCL-2/BAK assay (Cisbio); type: binding; conditions: recombinant human Tag1-BCL-2 2 nM, Tag2-BAK 10 nM
T2 construct: purchased Cisbio 63ADK000CB01PEG
Method: as §1, §2

T1 sequence (Q07817 whole entry): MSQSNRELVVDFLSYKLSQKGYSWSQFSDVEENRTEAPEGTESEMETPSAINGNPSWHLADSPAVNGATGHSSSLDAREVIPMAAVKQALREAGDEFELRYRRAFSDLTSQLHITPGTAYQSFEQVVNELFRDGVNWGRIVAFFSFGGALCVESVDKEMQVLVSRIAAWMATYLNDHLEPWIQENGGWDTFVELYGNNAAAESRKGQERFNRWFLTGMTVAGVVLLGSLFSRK
T2 sequence (P10415 whole entry): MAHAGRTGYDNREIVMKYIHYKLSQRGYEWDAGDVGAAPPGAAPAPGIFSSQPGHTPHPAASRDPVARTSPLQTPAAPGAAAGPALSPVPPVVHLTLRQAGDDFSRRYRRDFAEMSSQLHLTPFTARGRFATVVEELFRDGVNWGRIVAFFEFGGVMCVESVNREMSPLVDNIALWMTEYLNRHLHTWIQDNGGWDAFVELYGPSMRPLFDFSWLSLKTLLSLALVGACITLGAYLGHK

**Q.** With `O=C(NS(=O)(=O)c1ccc(NC[C@@H]2CO[C@@H]3OCC[C@H]23)c([N+](=O)[O-])c1)c1ccc(N2CCN([C@@H]3CCCCc4c(Br)cc(F)cc43)CC2)cc1Oc1cnc2[nH]ccc2c1` (relative stereo) [Compound 81, 2-((1H-pyrrolo[2,3-b]pyridin-5-yl)oxy)-4-(4-((R)-1-bromo-3-fluoro-6,7,8,9-tetrahydro-5H-benzo[7]annulen-5-yl)piperazin-1-yl)-N-((4-((((3R,3aR,6aS)-hexahydrofuro[2,3-b]furan-3-yl)methyl)amino)-3-nitrophenyl)sulfonyl)benzamide] as the molecule, how does the pIC50 (BCL-XL) read?
**A.** 5.70 to 6.70

**Q.** And the GI50 (DOHH2 cells)?
**A.** 500 to 5000 nM

**Q.** And the pIC50 (BCL-2)?
**A.** 6.70 to 7.70

**Q.** `O=C(NS(=O)(=O)c1ccc(NC[C@H]2CO[C@H]3OCC[C@@H]23)c([N+](=O)[O-])c1)c1ccc(N2CCN([C@@H]3CCCCc4c(Br)cc(F)cc43)CC2)cc1Oc1cnc2[nH]ccc2c1` (relative stereo) [Compound 82, 2-((1H-pyrrolo[2,3-b]pyridin-5-yl)oxy)-4-(4-((R)-1-bromo-3-fluoro-6,7,8,9-tetrahydro-5H-benzo[7]annulen-5-yl)piperazin-1-yl)-N-((4-((((3S,3aS,6aR)-hexahydrofuro[2,3-b]furan-3-yl)methyl)amino)-3-nitrophenyl)sulfonyl)benzamide] was tested. Which pIC50 (BCL-XL) did it give?
**A.** 5.70 to 6.70

**Q.** What about the GI50 (DOHH2 cells) of the same molecule?
**A.** 500 to 5000 nM

**Q.** What about the pIC50 (BCL-2) of the same molecule?
**A.** > 7.70

**Q.** What does the source list for `O=C(NS(=O)(=O)c1cccc([N+](=O)[O-])c1)c1ccc(N2CCN(C3CCCCc4ccccc43)CC2)cc1Oc1cnc2[nH]ccc2c1` (stereo not drawn) [Compound 5, 2-((1H-pyrrolo[2,3-b]pyridin-5-yl)oxy)-N-((3-nitrophenyl)sulfonyl)-4-(4-(6,7,8,9-tetrahydro-5H-benzo[7]annulen-5-yl)piperazin-1-yl)benzamide]?
**A.** pIC50 (BCL-XL): 5.70 to 6.70; GI50 (DOHH2 cells): 500 to 5000 nM; pIC50 (BCL-2): 6.70 to 7.70

**Q.** How did the pIC50 (BCL-XL) turn out when `O=C(NS(=O)(=O)c1ccc(NCC2CCOCC2)c([N+](=O)[O-])c1)c1ccc(N2CCN(C3COCc4ccccc43)CC2)cc1Oc1cnc2[nH]ccc2c1` (stereo not drawn) [Compound 12, 2-((1H-pyrrolo[2,3-b]pyridin-5-yl)oxy)-4-(4-(isochroman-4-yl)piperazin-1-yl)-N-((3-nitro-4-(((tetrahydro-2H-pyran-4-yl)methyl)amino)phenyl)sulfonyl)benzamide] was run?
**A.** < 5.70

**Q.** And the GI50 (DOHH2 cells)?
**A.** 500 to 5000 nM

**Q.** And the pIC50 (BCL-2)?
**A.** 6.70 to 7.70

**Q.** With `O=C(NS(=O)(=O)c1cccc([N+](=O)[O-])c1)c1ccc(N2CCN(C3CCCc4cccc(-c5ccc(Cl)cc5)c43)CC2)cc1Oc1cnc2[nH]ccc2c1` (stereo not drawn) [Compound 13, 2-((1H-pyrrolo[2,3-b]pyridin-5-yl)oxy)-4-(4-(8-(4-chlorophenyl)-1,2,3,4-tetrahydronaphthalen-1-yl)piperazin-1-yl)-N-((3-nitrophenyl)sulfonyl)benzamide] as the molecule, how does the pIC50 (BCL-XL) read?
**A.** 5.70 to 6.70

**Q.** What about the GI50 (DOHH2 cells) of the same molecule?
**A.** 500 to 5000 nM

**Q.** What about the pIC50 (BCL-2) of the same molecule?
**A.** 6.70 to 7.70

**Q.** With `O=C(NS(=O)(=O)c1ccc(NCC2CCOCC2)c([N+](=O)[O-])c1)c1ccc(N2CCN(C3CCCc4cccc(-c5ccc(Cl)cc5)c43)CC2)cc1Oc1cnc2[nH]ccc2c1` (stereo not drawn) [Compound 16, 2-((1H-pyrrolo[2,3-b]pyridin-5-yl)oxy)-4-(4-(8-(4-chlorophenyl)-1,2,3,4-tetrahydronaphthalen-1-yl)piperazin-1-yl)-N-((3-nitro-4-(((tetrahydro-2H-pyran-4-yl)methyl)amino)phenyl)sulfonyl)benzamide] as the molecule, how does the pIC50 (BCL-XL) read?
**A.** 5.70 to 6.70

**Q.** What about the GI50 (DOHH2 cells) of the same molecule?
**A.** 500 to 5000 nM

**Q.** And the pIC50 (BCL-2)?
**A.** > 7.70

**Q.** `O=C(NS(=O)(=O)c1ccc(NCC2CCOCC2)c([N+](=O)[O-])c1)c1ccc(N2CCN(C3CCCCc4c(Br)cccc43)CC2)cc1Oc1cnc2[nH]ccc2c1` (stereo not drawn) [Compound 18, 2-((1H-pyrrolo[2,3-b]pyridin-5-yl)oxy)-4-(4-(1-bromo-6,7,8,9-tetrahydro-5H-benzo[7]annulen-5-yl)piperazin-1-yl)-N-((3-nitro-4-(((tetrahydro-2H-pyran-4-yl)methyl)amino)phenyl)sulfonyl)benzamide] was tested. Which pIC50 (BCL-XL) did it give?
**A.** 6.70 to 7.70

**Q.** And the GI50 (DOHH2 cells)?
**A.** < 50 nM

**Q.** What about the pIC50 (BCL-2) of the same molecule?
**A.** > 7.70

**Q.** Which results are given for `CC(C)(C)OC(=O)N1CCC2(CC1)CC(CNc1ccc(S(=O)(=O)NC(=O)c3ccc(N4CCN([C@@H]5CCCCc6c(Cl)cccc65)CC4)cc3)cc1[N+](=O)[O-])C2` [Compound 116, tert-butyl (R)-2-(((4-(N-(4-(4-(1-chloro-6,7,8,9-tetrahydro-5H-benzo[7]annulen-5-yl)piperazin-1-yl)benzoyl)sulfamoyl)-2-nitrophenyl)amino)methyl)-7-azaspiro[3.5]nonane-7-carboxylate]?
**A.** pIC50 (BCL-XL): < 5.70; pIC50 (BCL-2): < 5.70

**Q.** `CC(=O)N1CCC2(CC1)CC(CNc1ccc(S(=O)(=O)NC(=O)c3ccc(N4CCN([C@@H]5CCCCc6c(Cl)cccc65)CC4)cc3)cc1[N+](=O)[O-])C2` [Compound 118, (R)-N-((4-(((7-acetyl-7-azaspiro[3.5]nonan-2-yl)methyl)amino)-3-nitrophenyl)sulfonyl)-4-(4-(1-chloro-6,7,8,9-tetrahydro-5H-benzo[7]annulen-5-yl)piperazin-1-yl)benzamide] was tested. Which pIC50 (BCL-XL) did it give?
**A.** < 5.70

**Q.** And the pIC50 (BCL-2)?
**A.** 5.70 to 6.70

**Q.** How did the GI50 (DOHH2 cells) turn out when `O=C(NS(=O)(=O)c1ccc(NCC2CC3(CCCCC3)C2)c([N+](=O)[O-])c1)c1ccc(N2CCN([C@@H]3CCCCc4c(Cl)cccc43)CC2)cc1Oc1cnc2[nH]ccc2c1` [Compound 132, (R)-2-((1H-pyrrolo[2,3-b]pyridin-5-yl)oxy)-4-(4-(1-chloro-6,7,8,9-tetrahydro-5H-benzo[7]annulen-5-yl)piperazin-1-yl)-N-((3-nitro-4-((spiro[3.5]nonan-2-ylmethyl)amino)phenyl)sulfonyl)benzamide] was run?
**A.** 50 to 500 nM

**Q.** And the pIC50 (BCL-2)?
**A.** > 7.70

**Q.** With `O=C(NS(=O)(=O)c1ccc(NCC2CC3(CCC4(CC3)OCCO4)C2)c([N+](=O)[O-])c1)c1ccc(N2CCN([C@@H]3CCCCc4c(Cl)cccc43)CC2)cc1Oc1cnc2[nH]ccc2c1` [Compound 133, (R)-2-((1H-pyrrolo[2,3-b]pyridin-5-yl)oxy)-N-((4-(((8,11-dioxadispiro[3.2.47.24]tridecan-2-yl)methyl)amino)-3-nitrophenyl)sulfony1)-4-(4-(1-chloro-6,7,8,9-tetrahydro-5H-benzo[7]annulen-5-yl)piperazin-1-yl)benzamide] as the molecule, how does the GI50 (DOHH2 cells) read?
**A.** < 50 nM

**Q.** What about the pIC50 (BCL-2) of the same molecule?
**A.** > 7.70

**Q.** Which results are given for `O=C(NS(=O)(=O)c1ccc(NCC2CC3(CCC(O)CC3)C2)c([N+](=O)[O-])c1)c1ccc(N2CCN([C@@H]3CCCCc4c(Cl)cccc43)CC2)cc1Oc1cnc2[nH]ccc2c1` (stereo partly drawn) [Compound 134, (R)-2-((1H-pyrrolo[2,3-b]pyridin-5-yl)oxy)-4-(4-(1-chloro-6,7,8,9-tetrahydro-5H-benzo[7]annulen-5-yl)piperazin-1-yl)-N-((4-(((7-hydroxyspiro[3.5]nonan-2-yl)methyl)amino)-3-nitrophenyl)sulfonyl)benzamide]?
**A.** GI50 (DOHH2 cells): < 50 nM; pIC50 (BCL-2): > 7.70

**Q.** How did the GI50 (DOHH2 cells) turn out when `O=C(NS(=O)(=O)c1ccc(NCC2CC3(CCC(F)(F)CC3)C2)c([N+](=O)[O-])c1)c1ccc(N2CCN([C@@H]3CCCCc4c(Cl)cccc43)CC2)cc1Oc1cnc2[nH]ccc2c1` [Compound 135, (R)-2-((1H-pyrrolo[2,3-b]pyridin-5-yl)oxy)-4-(4-(1-chloro-6,7,8,9-tetrahydro-5H-benzo[7]annulen-5-yl)piperazin-1-yl)-N-((4-(((7,7-difluorospiro[3.5]nonan-2-y1)methyl)amino)-3-nitrophenyl)sulfonyl)benzamide] was run?
**A.** < 50 nM

**Q.** And the pIC50 (BCL-2)?
**A.** > 7.70

From patent publication US20240239792A1, “MODULATORS OF BCL-2 OR BCL-2/BCL-XL AND USES THEREOF” (APPICINE THERAPEUTICS (HK) LIMITED, priority 2021, published 2024)
